One test deals with D(2) dopamine receptor (Mus musculus, UniProt P61168).
The next test addresses D(1A) dopamine receptor (Mus musculus, UniProt Q61616).

The text below walks through data of BindingDB's records for doi:10.1016/0014-2999(88)90492-x (Novo Industri, 1988).

As usually defined, the Ki is a measure of affinity in units of concentration, obtained from inhibition or displacement. High values mean weaker binding, low ones tighter binding.

Structures can show the parent of a compound that is named as a salt. A value given as a limit tells only on which side of the number the result lay.

D(1A) dopamine receptor, sequence (Q61616 whole entry): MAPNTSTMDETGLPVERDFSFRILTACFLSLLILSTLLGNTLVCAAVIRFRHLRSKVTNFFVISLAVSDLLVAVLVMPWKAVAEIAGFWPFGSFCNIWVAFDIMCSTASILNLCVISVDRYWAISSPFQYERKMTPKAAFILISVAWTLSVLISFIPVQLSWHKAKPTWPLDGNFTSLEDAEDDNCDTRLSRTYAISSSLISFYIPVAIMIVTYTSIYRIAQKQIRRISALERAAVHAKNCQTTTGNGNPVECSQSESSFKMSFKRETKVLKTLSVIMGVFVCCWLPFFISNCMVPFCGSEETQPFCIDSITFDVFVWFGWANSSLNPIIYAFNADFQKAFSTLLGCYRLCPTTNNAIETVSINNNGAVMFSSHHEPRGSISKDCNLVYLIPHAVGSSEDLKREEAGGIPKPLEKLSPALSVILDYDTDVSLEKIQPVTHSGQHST
D(2) dopamine receptor, sequence (P61168 whole entry): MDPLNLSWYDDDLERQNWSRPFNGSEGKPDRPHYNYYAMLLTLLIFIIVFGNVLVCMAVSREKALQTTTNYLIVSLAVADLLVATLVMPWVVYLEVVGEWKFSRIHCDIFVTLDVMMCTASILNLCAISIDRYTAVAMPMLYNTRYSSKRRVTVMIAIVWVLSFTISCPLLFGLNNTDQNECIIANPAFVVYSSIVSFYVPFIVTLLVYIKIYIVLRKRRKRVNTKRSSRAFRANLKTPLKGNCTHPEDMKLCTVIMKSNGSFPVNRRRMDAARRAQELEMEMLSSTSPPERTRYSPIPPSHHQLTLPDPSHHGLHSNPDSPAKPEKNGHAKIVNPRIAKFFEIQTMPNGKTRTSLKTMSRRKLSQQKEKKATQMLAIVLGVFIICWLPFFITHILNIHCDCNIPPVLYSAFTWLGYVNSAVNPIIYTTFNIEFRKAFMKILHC

As for `CN1CCN(C2=Nc3cc(Cl)ccc3Cc3sccc32)CC1` [CAS_42239-60-1], the Ki at D(2) dopamine receptor amounted to 27 nM; on D(1A) dopamine receptor it was 17 nM.
In the same order, the values of `CN1CCN(C2=Nc3cc(F)ccc3Cc3ccccc32)CC1` are 245 nM and 85 nM.
For `CN1CCN(C2=Nc3ccccc3Oc3ccc(Cl)cc32)CC1` [13-chloro-10-(4-methylpiperazin-1-yl)-2-oxa-9-azatricyclo[9.4.0.0^{3,8}]pentadeca-1(11),3,5,7,9,12,14-heptaene] the same measures were 7.6 nM and 16 nM.
In the case of `OCCN1CCN(CCCN2c3ccccc3Sc3ccc(C(F)(F)F)cc32)CC1` [2-[4-[3-[2-(trifluoromethyl)phenothiazin-10-yl]propyl]piperazin-1-yl]ethanol;hydrochloride], the Ki at D(1A) dopamine receptor was found to be 4.5 nM.
With `O=C(O)c1ccccc1C(=O)Nc1cccc2ccccc12` [NPA,(+)], the Ki on D(2) dopamine receptor worked out at 4.1 nM; on D(1A) dopamine receptor, 480 nM.
`CCN1CCCC1CNC(=O)c1cc(S(N)(=O)=O)ccc1OC` (centres undefined) [N-[(1-ethylpyrrolidin-2-yl)methyl]-2-methoxy-5-sulfamoylbenzamide] gave a Ki on D(2) dopamine receptor of 70 nM. That is a double-digit nanomolar value.
Consider `CCc1c(C)[nH]c2c1C(=O)C(CN1CCOCC1)CC2` (centres undefined) [Moban], for which the Ki at D(2) dopamine receptor was 56 nM; on D(1A) dopamine receptor it was more than 10000 nM.
For `CCN1CCC[C@H]1CNC(=O)c1c(O)c(Cl)cc(Cl)c1OC` [3,5-Dichloro-N-(1-ethyl-pyrrolidin-2-ylmethyl)-2-hydroxy-6-methoxy-benzamide (raclopride)] the same measures were 4.8 nM and more than 10000 nM.
